# Source: PMC4522657, “Identification of a DYRK1A Inhibitor that Induces Degradation of the Target Kinase using Co-chaperone CDC37 fused with Luciferase nanoKAZ” (Scientific Reports, 2015)
# Columns and labels:
# Assay in all cases: Kinase panel, CaNDY 1 µM
# Format in all cases: biochemical
# Settings in all cases: CaNDY 1 µM relative to DMSO
# [1] = target: T1, CGK2 (Homo sapiens, UniProt Q13237)
# T1 construct: purchased Carna Biosciences
# Summary of the method: (§1)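 Compound in DMSO is diluted into assay buffer (final 1% DMSO) and incubated with the kinase reaction for one hour at room temperature. Substrate and phosphorylated product are then separated electrophoretically, and the P/(P + substrate) ratio gives percent inhibition versus an untreated control.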
# [2] = target: T2, AurC (Homo sapiens, UniProt Q9UQB9)
# T2 construct: purchased Carna Biosciences
# T2 sequence (Q9UQB9 whole entry): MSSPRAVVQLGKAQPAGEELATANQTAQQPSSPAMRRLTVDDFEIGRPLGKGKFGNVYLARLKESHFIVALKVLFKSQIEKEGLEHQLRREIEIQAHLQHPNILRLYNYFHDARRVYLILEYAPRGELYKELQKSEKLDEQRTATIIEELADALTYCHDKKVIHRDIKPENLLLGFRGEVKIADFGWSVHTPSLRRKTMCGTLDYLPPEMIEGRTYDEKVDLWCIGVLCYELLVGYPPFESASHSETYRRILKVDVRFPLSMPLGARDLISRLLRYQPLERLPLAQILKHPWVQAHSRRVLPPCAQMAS
# Summary of the method: as §1
# [3] = target: T3, AurB (Homo sapiens, UniProt Q96GD4)
# T3 construct: purchased Carna Biosciences
# T3 sequence (Q96GD4 whole entry): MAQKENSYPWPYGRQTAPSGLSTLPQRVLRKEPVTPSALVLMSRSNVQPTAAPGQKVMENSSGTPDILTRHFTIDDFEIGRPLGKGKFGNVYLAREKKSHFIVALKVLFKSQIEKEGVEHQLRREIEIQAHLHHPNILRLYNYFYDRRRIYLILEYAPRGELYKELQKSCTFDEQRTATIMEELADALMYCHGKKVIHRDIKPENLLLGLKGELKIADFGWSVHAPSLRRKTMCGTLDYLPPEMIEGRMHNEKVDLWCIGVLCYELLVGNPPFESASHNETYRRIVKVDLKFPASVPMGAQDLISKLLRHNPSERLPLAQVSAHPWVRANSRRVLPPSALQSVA
# T3 sequence (Q9NQS7 803-918 partner limits assumed): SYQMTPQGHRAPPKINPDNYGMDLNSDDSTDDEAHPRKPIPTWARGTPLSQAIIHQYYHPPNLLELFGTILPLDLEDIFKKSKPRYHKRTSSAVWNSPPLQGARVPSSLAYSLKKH
# Summary of the method: as §1
# [4] = target: T4, BMX (Homo sapiens, UniProt P51813)
# T4 construct: purchased Carna Biosciences
# Summary of the method: as §1
# [5] = target: T5, SPHK1 (Homo sapiens, UniProt Q9NYA1)
# T5 construct: purchased Carna Biosciences
# Summary of the method: as §1
# [6] = target: T6, CaMK2δ (Homo sapiens, UniProt Q13557)
# T6 construct: purchased Carna Biosciences
# Summary of the method: as §1
# [7] = target: T7, PKCδ (Homo sapiens, UniProt Q05655)
# T7 construct: purchased Carna Biosciences
# Summary of the method: as §1
# [8] = target: T8, KIT(V654A) (Homo sapiens, UniProt P10721, V654A)
# T8 construct: purchased Carna Biosciences
# Summary of the method: as §1
# [9] = target: T9, SGK3 (Homo sapiens, UniProt Q96BR1)
# T9 construct: purchased Carna Biosciences
# Summary of the method: as §1
# [10] = target: T10, WNK1 (Homo sapiens, UniProt Q9H4A3)
# T10 construct: purchased Carna Biosciences
# Summary of the method: as §1
# [11] = target: T11, PGK (Homo sapiens, UniProt Q13976)
# T11 construct: purchased Carna Biosciences
# Summary of the method: as §1
# [12] = target: T12, NEK2 (Homo sapiens, UniProt P51955)
# T12 construct: purchased Carna Biosciences
# T12 sequence (P51955 whole entry): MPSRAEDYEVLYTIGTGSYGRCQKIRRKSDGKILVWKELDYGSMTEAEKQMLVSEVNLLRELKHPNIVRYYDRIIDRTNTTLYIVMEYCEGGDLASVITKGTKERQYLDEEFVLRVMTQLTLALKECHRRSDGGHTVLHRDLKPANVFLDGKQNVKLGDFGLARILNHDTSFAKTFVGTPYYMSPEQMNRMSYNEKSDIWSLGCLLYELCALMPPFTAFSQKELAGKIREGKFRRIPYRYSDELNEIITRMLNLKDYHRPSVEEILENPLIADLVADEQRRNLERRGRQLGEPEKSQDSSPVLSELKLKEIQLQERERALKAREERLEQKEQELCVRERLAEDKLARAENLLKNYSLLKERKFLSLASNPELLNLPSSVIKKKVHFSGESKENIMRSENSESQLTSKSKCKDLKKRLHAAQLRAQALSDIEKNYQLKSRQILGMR
# Summary of the method: as §1
# [13] = target: T13, MAPKAPK2 (Homo sapiens, UniProt P49137)
# T13 construct: purchased Carna Biosciences
# Summary of the method: as §1
# [14] = target: T14, ACK (Homo sapiens, UniProt Q07912)
# T14 construct: purchased Carna Biosciences
# Summary of the method: as §1
# [15] = target: T15, RET(G691S) (Homo sapiens, UniProt P07949, G691S)
# T15 construct: purchased Carna Biosciences
# T15 sequence (P07949 29-1114 G691S): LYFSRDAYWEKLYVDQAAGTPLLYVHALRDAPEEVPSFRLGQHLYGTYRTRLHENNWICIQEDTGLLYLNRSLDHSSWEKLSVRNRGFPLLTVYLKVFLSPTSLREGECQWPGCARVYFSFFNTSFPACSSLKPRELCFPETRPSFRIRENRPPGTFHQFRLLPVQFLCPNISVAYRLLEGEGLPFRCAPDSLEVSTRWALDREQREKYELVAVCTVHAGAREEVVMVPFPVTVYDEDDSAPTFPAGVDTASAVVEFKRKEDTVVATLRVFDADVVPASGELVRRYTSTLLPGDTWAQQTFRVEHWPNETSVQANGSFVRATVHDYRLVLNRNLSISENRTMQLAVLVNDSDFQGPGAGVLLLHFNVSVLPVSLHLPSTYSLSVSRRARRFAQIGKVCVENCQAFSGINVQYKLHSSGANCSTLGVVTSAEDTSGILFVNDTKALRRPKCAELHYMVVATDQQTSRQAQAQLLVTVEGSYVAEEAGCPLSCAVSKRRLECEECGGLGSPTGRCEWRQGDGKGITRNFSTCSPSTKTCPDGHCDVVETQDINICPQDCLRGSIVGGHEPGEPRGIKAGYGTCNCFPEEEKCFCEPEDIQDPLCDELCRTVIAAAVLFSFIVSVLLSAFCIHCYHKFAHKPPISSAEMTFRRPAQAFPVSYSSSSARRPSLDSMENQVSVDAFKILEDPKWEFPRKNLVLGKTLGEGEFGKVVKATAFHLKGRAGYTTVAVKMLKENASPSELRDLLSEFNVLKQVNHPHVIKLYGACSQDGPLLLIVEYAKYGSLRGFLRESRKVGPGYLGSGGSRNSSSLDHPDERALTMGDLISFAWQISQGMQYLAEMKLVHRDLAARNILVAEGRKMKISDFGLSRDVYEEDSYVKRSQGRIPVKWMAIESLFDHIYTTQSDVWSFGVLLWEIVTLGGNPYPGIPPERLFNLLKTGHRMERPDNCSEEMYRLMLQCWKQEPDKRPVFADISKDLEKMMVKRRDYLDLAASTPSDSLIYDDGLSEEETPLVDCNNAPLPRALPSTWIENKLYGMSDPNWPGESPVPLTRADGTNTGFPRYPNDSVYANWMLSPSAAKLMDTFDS
# Summary of the method: as §1
# [16] = target: T16, MUSK (Homo sapiens, UniProt O15146)
# T16 construct: purchased Carna Biosciences
# Summary of the method: as §1
# [17] = target: T17, MELK (Homo sapiens, UniProt Q14680)
# T17 construct: purchased Carna Biosciences
# Summary of the method: as §1
# [18] = target: T18, CK1ε (Homo sapiens, UniProt P49674)
# T18 construct: purchased Carna Biosciences
# Summary of the method: as §1
# [19] = target: T19, MET(Y1235D) (Homo sapiens, UniProt P08581, Y1235D)
# T19 construct: purchased Carna Biosciences
# Summary of the method: as §1
# [20] = target: T20, EPHB1 (Homo sapiens, UniProt P54762)
# T20 construct: purchased Carna Biosciences
# Summary of the method: as §1
# [21] = target: T21, EGFR(d746-750) (Homo sapiens, UniProt P00533, DEL746-750)
# T21 construct: purchased Carna Biosciences
# Summary of the method: as §1
# [22] = target: T22, DDR1 (Homo sapiens, UniProt Q08345)
# T22 construct: purchased Carna Biosciences
# Summary of the method: as §1
# [23] = target: T23, FGR (Homo sapiens, UniProt P09769)
# T23 construct: purchased Carna Biosciences
# Summary of the method: as §1
# [24] = target: T24, DDR2 (Homo sapiens, UniProt Q16832)
# T24 construct: purchased Carna Biosciences
# Summary of the method: as §1
# [25] = target: T25, ABL (Homo sapiens, UniProt P00519)
# T25 construct: purchased Carna Biosciences
# T25 sequence (P00519 whole entry): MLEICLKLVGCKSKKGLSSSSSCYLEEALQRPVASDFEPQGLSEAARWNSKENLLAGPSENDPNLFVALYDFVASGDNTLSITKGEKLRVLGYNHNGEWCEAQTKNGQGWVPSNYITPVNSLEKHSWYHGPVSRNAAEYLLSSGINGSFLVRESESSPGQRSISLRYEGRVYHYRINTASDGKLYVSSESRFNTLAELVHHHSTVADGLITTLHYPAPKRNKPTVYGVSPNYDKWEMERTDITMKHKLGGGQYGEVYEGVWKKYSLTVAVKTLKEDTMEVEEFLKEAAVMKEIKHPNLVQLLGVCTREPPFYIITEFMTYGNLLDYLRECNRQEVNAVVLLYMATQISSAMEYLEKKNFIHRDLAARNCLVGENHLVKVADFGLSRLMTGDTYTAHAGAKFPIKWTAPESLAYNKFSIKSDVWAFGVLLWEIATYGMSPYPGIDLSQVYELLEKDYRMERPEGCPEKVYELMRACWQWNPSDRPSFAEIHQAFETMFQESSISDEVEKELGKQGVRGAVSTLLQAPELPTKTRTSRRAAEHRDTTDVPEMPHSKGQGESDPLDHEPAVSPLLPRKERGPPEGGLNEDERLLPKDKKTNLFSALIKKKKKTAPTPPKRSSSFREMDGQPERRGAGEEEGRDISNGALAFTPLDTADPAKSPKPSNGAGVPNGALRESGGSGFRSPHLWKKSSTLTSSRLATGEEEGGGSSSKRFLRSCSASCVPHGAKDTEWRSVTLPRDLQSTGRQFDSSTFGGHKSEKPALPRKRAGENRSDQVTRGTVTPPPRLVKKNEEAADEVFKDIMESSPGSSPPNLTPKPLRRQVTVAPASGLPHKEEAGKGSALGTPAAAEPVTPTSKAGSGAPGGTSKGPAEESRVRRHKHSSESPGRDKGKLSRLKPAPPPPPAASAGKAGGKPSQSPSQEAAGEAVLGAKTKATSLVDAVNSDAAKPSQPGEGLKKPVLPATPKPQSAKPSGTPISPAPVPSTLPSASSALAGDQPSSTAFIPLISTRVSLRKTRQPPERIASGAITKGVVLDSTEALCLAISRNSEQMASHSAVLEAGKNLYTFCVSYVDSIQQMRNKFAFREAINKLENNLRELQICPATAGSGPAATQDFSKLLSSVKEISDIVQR
# Summary of the method: as §1
# [26] = target: T26, FGFR1 (Homo sapiens, UniProt P11362)
# T26 construct: purchased Carna Biosciences
# Summary of the method: as §1
# [27] = target: T27, JNK3 (Homo sapiens, UniProt P53779)
# T27 construct: purchased Carna Biosciences
# Summary of the method: as §1
# [28] = target: T28, EGFR(L861Q) (Homo sapiens, UniProt P00533, L861Q)
# T28 construct: purchased Carna Biosciences
# Summary of the method: as §1
# [29] = target: T29, TAK1-TAB1_Cascade (Homo sapiens, UniProt O43318)
# T29 construct: purchased Carna Biosciences
# Summary of the method: as §1
# [30] = target: T30, MNK1 (Homo sapiens, UniProt Q9BUB5)
# T30 construct: purchased Carna Biosciences
# Summary of the method: as §1
# [31] = target: T31, EPHA1 (Homo sapiens, UniProt P21709)
# T31 construct: purchased Carna Biosciences
# Summary of the method: as §1
# [32] = target: T32, PRKX (Homo sapiens, UniProt P51817)
# T32 construct: purchased Carna Biosciences
# Summary of the method: as §1
# [33] = target: T33, IGF1R (Homo sapiens, UniProt P08069)
# T33 construct: purchased Carna Biosciences
# Summary of the method: as §1
# [34] = target: T34, CaMK4 (Homo sapiens, UniProt Q16566)
# T34 construct: purchased Carna Biosciences
# T34 sequence (Q16566 whole entry): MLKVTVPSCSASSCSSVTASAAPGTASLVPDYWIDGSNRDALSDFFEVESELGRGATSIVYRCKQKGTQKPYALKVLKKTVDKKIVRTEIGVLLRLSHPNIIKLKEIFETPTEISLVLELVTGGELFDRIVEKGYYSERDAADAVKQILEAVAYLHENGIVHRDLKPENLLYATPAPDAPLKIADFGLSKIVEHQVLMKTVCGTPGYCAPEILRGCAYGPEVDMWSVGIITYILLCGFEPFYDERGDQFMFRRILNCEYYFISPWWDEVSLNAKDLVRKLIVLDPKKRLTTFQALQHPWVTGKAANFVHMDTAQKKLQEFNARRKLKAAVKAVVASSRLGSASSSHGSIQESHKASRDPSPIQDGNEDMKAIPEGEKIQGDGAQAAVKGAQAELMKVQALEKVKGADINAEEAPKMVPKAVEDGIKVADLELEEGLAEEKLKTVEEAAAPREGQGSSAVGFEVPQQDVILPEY
# Summary of the method: as §1
# [35] = target: T35, TYRO3 (Homo sapiens, UniProt Q06418)
# T35 construct: purchased Carna Biosciences
# Summary of the method: as §1
# [36] = target: T36, EPHA7 (Homo sapiens, UniProt Q15375)
# T36 construct: purchased Carna Biosciences
# T36 sequence (Q15375 28-998): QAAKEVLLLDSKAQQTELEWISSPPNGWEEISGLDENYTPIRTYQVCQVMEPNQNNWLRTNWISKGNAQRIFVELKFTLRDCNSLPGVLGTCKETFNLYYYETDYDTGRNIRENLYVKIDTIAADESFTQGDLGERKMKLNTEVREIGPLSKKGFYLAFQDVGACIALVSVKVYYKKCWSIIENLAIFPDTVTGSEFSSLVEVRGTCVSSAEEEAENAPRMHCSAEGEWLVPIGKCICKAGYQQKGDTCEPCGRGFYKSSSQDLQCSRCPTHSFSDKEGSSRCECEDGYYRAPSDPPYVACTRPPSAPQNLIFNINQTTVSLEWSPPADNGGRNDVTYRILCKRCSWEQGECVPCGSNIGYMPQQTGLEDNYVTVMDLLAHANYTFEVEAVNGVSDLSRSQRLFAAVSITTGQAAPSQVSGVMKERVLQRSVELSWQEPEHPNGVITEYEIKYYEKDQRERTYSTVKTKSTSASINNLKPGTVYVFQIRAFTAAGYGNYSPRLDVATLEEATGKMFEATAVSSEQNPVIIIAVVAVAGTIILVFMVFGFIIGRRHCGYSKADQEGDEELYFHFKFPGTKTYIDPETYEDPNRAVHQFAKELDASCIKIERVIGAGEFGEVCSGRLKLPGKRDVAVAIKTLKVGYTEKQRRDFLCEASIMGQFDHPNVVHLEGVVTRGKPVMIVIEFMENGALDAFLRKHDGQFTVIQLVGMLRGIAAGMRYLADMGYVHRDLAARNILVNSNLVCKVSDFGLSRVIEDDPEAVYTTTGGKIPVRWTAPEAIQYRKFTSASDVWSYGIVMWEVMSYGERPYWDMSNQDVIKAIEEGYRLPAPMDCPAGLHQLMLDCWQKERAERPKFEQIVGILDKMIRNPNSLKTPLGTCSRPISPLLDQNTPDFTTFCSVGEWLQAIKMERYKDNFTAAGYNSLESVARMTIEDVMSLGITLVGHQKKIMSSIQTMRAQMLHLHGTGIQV
# Summary of the method: as §1
structure (smiles),measurement,setting,value
"[H]/N=C1/NC(=O)C(=Cc2ccc3c(c2)CCO3)S1 [CaNDY, (Z)-5-[(2,3-dihydrobenzofuran-5-yl)methylene]-2-iminothiazolidin-4-one]",remaining activity at 1 µM,[1],71.1%
same,remaining activity at 1 µM,[2],97%
same,remaining activity at 1 µM,[3],95.1%
same,remaining activity at 1 µM,[4],100%
same,remaining activity at 1 µM,[5],83.5%
same,remaining activity at 1 µM,[6],89.6%
same,remaining activity at 1 µM,[7],74.1%
same,remaining activity at 1 µM,[8],98.5%
same,remaining activity at 1 µM,[9],93.3%
same,%Activity,[10],98.8%
same,remaining activity at 1 µM,[11],92.8%
same,remaining activity at 1 µM,[12],95.3%
same,remaining activity at 1 µM,[13],100%
same,remaining activity at 1 µM,[14],108%
same,remaining activity at 1 µM,[15],102%
same,remaining activity at 1 µM,[16],98.4%
same,remaining activity at 1 µM,[17],91.5%
same,remaining activity at 1 µM,[18],89.4%
same,%Activity,[19],99.0%
same,remaining activity at 1 µM,[20],95.3%
same,%Activity,[21],104.8%
same,remaining activity at 1 µM,[22],99.3%
same,remaining activity at 1 µM,[23],102%
same,remaining activity at 1 µM,[24],101%
same,remaining activity at 1 µM,[25],103%
same,remaining activity at 1 µM,[26],105%
same,%Activity,[27],100.8%
same,%Activity,[28],103.3%
same,remaining activity at 1 µM,[29],104%
same,remaining activity at 1 µM,[30],94.6%
same,remaining activity at 1 µM,[31],95.5%
same,remaining activity at 1 µM,[32],97.6%
same,remaining activity at 1 µM,[33],101%
same,remaining activity at 1 µM,[34],103%
same,remaining activity at 1 µM,[35],104%
same,remaining activity at 1 µM,[36],97.6%
